For series [1], the system named is STZ-induced diabetic rats. The series is described as follows: Fasting blood glucose in STZ-induced diabetic rats, eight weeks of treatment. Type of series: in vivo, Wistar rats. As to the method:
Animals: Eight weeks old Wistar rats (n=54; 24 males: 30 females) weighing 160-180 g were used in the study. During the eight weeks of the experiment, animals were kept in the animal house with a controlled temperature (25±2°C.), and 12 hours light/dark cycle. Water and standardized food access were provided at libitum.
Diabetes Induction: Prior to induction of diabetes, animals were given a high-fat diet (40% fat content) for two weeks. Diabetes was induced by administrating intraperitoneally a single dose of freshly prepared solution of streptozotocin (45 mg/kg) (Wako, Richmond, USA) in a chilled 0.1 M citrate buffer, pH 4.5. The normal control rats were injected with citrate buffer alone. Fasting blood glucose levels (FBG) were measured after 48 hours, and one week of diabetes induction with a blood glucose analyzer (Accu-Chek®, Roche, Mannheim, Germany). […]
Blood glucose levels and body weight of each group were monitored on weekly basis under fasting states. […] Serum- and isolated pancreatic insulin contents were measured by rat insulin ELISA kit (Amersham Biosciences, N.J., USA).
Statistical Analysis: All results are expressed as means ±SEM. The significance of differences between groups was determined by using one-way ANOVA, and multiple comparisons were performed by Tukey Alpha, post hoc analysis. […]

In series [2] the test system is STZ-induced diabetic rats. The series is described as follows: Dose optimization of anti-diabetic effect in STZ-induced diabetic rats. Type of series: in vivo, Wistar rats. Particulars: 25, 50, and 100 mg/kg in STZ-induced diabetic rats. How it is done: (§1) Diabetes Induction: Prior to induction of diabetes, animals were given a high-fat diet (40% fat content) for two weeks. Diabetes was induced by administrating intraperitoneally a single dose of freshly prepared solution of streptozotocin (45 mg/kg) (Wako, Richmond, USA) in a chilled 0.1 M citrate buffer, pH 4.5. The normal control rats were injected with citrate buffer alone. Fasting blood glucose levels (FBG) were measured after 48 hours, and one week of diabetes induction with a blood glucose analyzer (Accu-Chek®, Roche, Mannheim, Germany). Rats with FBG levels of ≥200 mg/dL were considered diabetic, and randomly divided into diabetic and a compound 1-treated (100 mg/kg) groups. […] This indicated the safety of doses up to 100 mg/kg of body weight.

The subject of series [3] is STZ-induced diabetic rats. The series is described as follows: Mortality on daily oral administration for eight weeks. It is filed as in vivo, Wistar rats. Particulars: doses up to 100 mg/kg of body weight. As to the method: as §1
For series [4], the system named is STZ-induced diabetic rats. The experiment in a line: Serum insulin levels by rat insulin ELISA. It is filed as in vivo, Wistar rats. Particulars: 100 mg/kg, 8 weeks, vs STZ-induced diabetic group. How it is done: (§2) Blood glucose levels and body weight of each group were monitored on weekly basis under fasting states. Blood samples were drawn from tail vein to measure the glucose levels by blood glucose analyzer. After 8 weeks of the experiments, rats under 8 hours of fasting states were anaesthetized by phenobarbital sodium (60 mg/kg), and blood samples were collected via cardiopuncture. Serum was stored at −80° C. until measurement of the insulin levels. A part of cryopreserved isolated pancreas was used for the measurement of pancreatic insulin contents. Briefly, pancreas were homogenized in an acid-ethanol solution (75% ethanol, 1.5% HCl, and 23.5% deionized water), and the mixture was kept for 4 hours at 4° C. to extract the insulin. Serum- and isolated pancreatic insulin contents were measured by rat insulin ELISA kit (Amersham Biosciences, N.J., USA).

The test system of series [5] is STZ-induced diabetic rats. The series is described as follows: Pancreatic insulin contents by acid-ethanol extraction and rat insulin ELISA. Type of series: in vivo, Wistar rats. To be noted: 100 mg/kg, 8 weeks, vs STZ-induced diabetic group. How it is done: as §2
The test system of series [6] is pancreatic islet in diabetic Wistar rats. The experiment in a line: Islets histopathology (H&E) and insulin immunohistochemistry. It is filed as in vivo. Particulars: 100 mg/kg. As to the method: Procedure: Pancreata isolated from rats were fixed with 3.7% neutral buffered formalin and embedded in paraffin. The 5 μm thick sections (n=6/group) were stained with eosin and hematoxilin, and evaluated for islets histopathology, after performing deparaffinization and dehydration steps. For immunohistochemistry analysis, briefly the antigen was first retrieved by heating for 40 min at 90° C. in 5.0 mM citrate buffer, pH 4.5. Prior to primary antibody treatment, each section was then cooled at room temperature, and incubated with 1× rotti immunoblocking solution (Carl Roth, Karlsruhe, Germany). The sections were immunostained with mouse K36AC10 monoclonal anti-insulin antibody (1:2,000) (Sigma Aldrich, St. Louis, Mo., USA) for 1 hour in a dark humidified chamber at 37° C. The sections were then immunostained with Alexa Fluor 594 donkey anti-mouse IgM secondary antibody (1:200)(Jackson ImmunoResearch, Pa., USA) for 1 hour in a dark chamber at 37° C. for detention. Finally, beta cells nuclei were stained with DAPI (1:5,000) (Sigma Aldrich, St, Louis, Mo., USA). The stained sections were observed under Nikon 90i microscope, equipped with DXM-1200 digital camera (Nikon, Tokyo, Japan).

Series [7] has the same test system. The series is described as follows: Quantification of pancreatic islet area and beta-cell number. Particulars: 100 mg/kg, per pancreas section, n=5. It is filed as in vivo. The text has this:
Procedure: The pancreatic islet area (μ2) and the beta-cell number were quantified from overlapped images of pancreas that was immunostained with insulin and DAPI in all islet sections using NIS-Elements image analysis software AR 3.0. The pancreatic islet area (μ2) and the beta-cell number per section were enumerated by using five sections per pancreas, and five rats from each group.

Entries after “also recorded” stand apart in the source; their conditions may differ.

Regarding `O=C(O)c1ccccc1Nc1ccc([N+](=O)[O-])cc1[N+](=O)[O-]` [Compound 1, 2,4-Dinitroanilino-benzoic acid], the “FBG levels (in words)” value in series [1] (100 mg/kg of body weight, long term treatment, vs untreated diabetic group) is recorded as “significant reduction in FBG levels”. Moreover, the FBG in series [1] (STZ-induced diabetic rats, 100 mg/kg, eight weeks of treatment, mean ± SE, 06 rats, *P<0.05 vs diabetic group) is reported as 126 ± 8* mg/dL. The “anti-diabetic effect, dose optimization” value in series [2] was “dose dependent anti-diabetic effect was observed with a significant effect at 100 mg/kg”. For the same compound, in series [3], the mortality entry is given as “without significant mortality”. In series [4], the serum insulin levels entry is given as “marked increase in serum insulin levels”. For the same compound, in series [5], the pancreatic insulin contents result is given as “increase in pancreatic insulin contents; also recorded: significantly restored”. Also, the “degenerative changes / islet atrophy (histopathology)” value in series [6] (H&E staining, STZ-induced diabetic rats) is on record as “markedly attenuated the STZ-induced islet atrophy; also recorded: significantly attenuated”. For the same compound, the “immunofluorescent staining for insulin / residual beta-cell function” value in series [6] (anti-insulin immunostaining, vs STZ-induced diabetic group) is “increased immunoreactivity for insulin; also recorded: restored the residual beta-cell function”. In series [7], the beta-cell number entry is listed as “significantly restored” and the islet area result is given as “significantly restored”.

The values above are taken from patent publication US10183000B1, “2, 4-dinitroanilino-benzoic acid: novel insulinotropic agent for the treatment of diabetes” (priority 2017, dated 2019).
